Results published in US9856321B2, “Anti-DR5 antibodies, polynucleotides and methods” (Daiichi Sankyo Company, Limited, priority 2010, dated 2018).

Tests used:
[1] = tested on: human colon cancer cell line HCT-15; assay: Antitumor activity in combination with 5-FU in nude mice implanted with HCT-15, comparison with conatumumab; assay type: in vivo; conditions: day 28; antibody 3 mg/kg tail vein days 7, 14, 21; 5-FU 160 mg/kg tail vein day 7
[2] = tested on: human colon cancer cell line HCT-15; assay: Comparison of antitumor activity in nude mice implanted with HCT-15 between cB273 and conatumumab; assay type: in vivo; conditions: day 30 after the implantation
Description: 1×10^7 cells of a human colon cancer cell line HCT-15 (purchased from ATCC) were implanted subcutaneously in the axillary region of nude mice. […] In the same manner as described above, the major axis and the minor axis of the implanted tumor were measured, and the tumor volume was calculated.

[3] = tested on: human lung cancer cell line NCI-H1975; assay: Comparison of antitumor activity in nude mice implanted with NCI-H1975 between cB273 and conatumumab; assay type: in vivo; conditions: day 32 after the implantation
Description: 3×10^6 cells of a human lung cancer cell line NCI-H1975 (purchased from ATCC) were implanted subcutaneously in the axillary region of nude mice. […] In the same manner as described above, the major axis and the minor axis of the implanted tumor were measured, and the tumor volume was calculated.

[4] = tested on: human non-small cell lung cancer cell line NCI-H1975; conditions: day 32; antibody 3 mg/kg tail vein days 11, 18, 25; paclitaxel 6.25 mg/kg tail vein days 11-14
Description: The major axis and the minor axis of the implanted tumor were measured twice a week using an electronic digital caliper (manufactured by Mitutoyo Corporation), and the tumor volume was calculated according to the following calculation formula. Tumor volume (mm^3)=1/2×(Minor axis)^2 (mm)×(Major axis)^2 (mm)
3×10^6 cells of a human non-small cell lung cancer cell line NCI-H1975 (purchased from ATCC) were implanted subcutaneously in the axillary region of nude mice. […] Paclitaxel was administered to tumor-bearing mice through the tail vein on days 11, 12, 13, and 14 after the implantation at a dose of 6.25 mg/kg. The experiment was carried out at n=6. In the same manner as described above, the major axis and the minor axis of the implanted tumor were measured, and the tumor volume was calculated.

[5] = tested on: human colon cancer cell line DLD-1; assay: Antitumor activity in nude mice implanted with DLD-1 (in combination with CPT-11); assay type: in vivo; conditions: day 55; cB273 10 mg/kg ip day 35; CPT-11 80 mg/kg ip days 35, 40, 43
Description: CPT-11 was intraperitoneally administered at a dose of 80 mg/kg on days 35, 40, and 43 after the implantation (n=10).

[6] = tested on: human colon cancer cell line HCT-15; assay: Antitumor activity in nude mice implanted with HCT-15 (in combination with CPT-11); assay type: in vivo; conditions: day 31; cB273 10 mg/kg tail vein day 7; CPT-11 80 mg/kg ip days 7, 10, 14
Description: CPT-11 was intraperitoneally administered at a dose of 80 mg/kg on days 7, 10, and 14 after the implantation (n=10).

[7] = tested on: human colon cancer cell line HCT-116; assay: Antitumor activity in nude mice implanted with HCT-116 (in combination with CPT-11); assay type: in vivo; conditions: day 28; cB273 10 mg/kg tail vein day 7; CPT-11 65 mg/kg ip days 7, 10, 14
Description: CPT-11 was intraperitoneally administered at a dose of 65 mg/kg on days 7, 10, and 14 after the implantation (n=10).

[8] = tested on: human melanoma cell line A375; assay: Antitumor activity in nude mice implanted with A375 (in combination with vinblastine); assay type: in vivo; conditions: day 46; cB273 10 mg/kg tail vein days 10, 17, 24; vinblastine 10 mg/kg tail vein day 10
[9] = tested on: human T-lymphoma cell line Jurkat; assay: In vitro cytocidal activity of mouse antibody B273, Jurkat; assay type: cell-based; conditions: 10,000 to 0.01 ng/ml with goat anti-mouse IgG Fc, 24 hours
Description: (§1) Each of a human T-lymphoma cell line Jurkat and a human glioblastoma cell line U-87MG was prepared at 4.4×10^4 cells/ml in RPMI 1640 medium containing 10% FBS or MEM (Minimum Essential Medium) medium containing 10% FBS and added to a white clear bottom 96-well microplate (manufactured by Corning Incorporated) at […], and cultured overnight under the conditions of 37° C. and 5% CO2. The mouse B273 antibody or the mouse IgG1 antibody (manufactured by R&D Systems, Inc.) was mixed with the same concentration of AffiniPure goat anti-mouse IgG Fc specific (manufactured by Jackson ImmunoResearch Laboratories, Inc., #115-005-071), and the resulting mixture was added at 5 μl/well such that the final concentration of the mouse B273 antibody or the mouse IgG1 antibody was 10,000 to 0.01 ng/ml, and the cells were cultured under the conditions of 37° C. and 5% CO2 for 24 hours. The amount of ATP derived from viable cells in each well was measured by a luminometer (manufactured by Perkin Elmer, Inc.) using a CellTiter-Glo® luminescent cell viability assay kit (manufactured by Promega Corporation, #G7571) according to the attached protocol. The cytocidal activity was evaluated by taking the value obtained from the well to which the medium was added in place of the antibody solution as 100% (FIG. 1). In each graph, the cell viability is expressed as a mean±standard deviation (n=3).

[10] = tested on: human glioblastoma cell line U-87MG; assay: In vitro cytocidal activity of mouse antibody B273, U-87MG; assay type: cell-based; conditions: 10,000 to 0.01 ng/ml with goat anti-mouse IgG Fc, 24 hours
Description: as §1

With `O=c1[nH]cc(F)c(=O)[nH]1` [5-FU] the “tumor growth inhibitory rate” value [1] was 54%.

With conatumumab [reference compound] the “tumor growth inhibitory rate” value ([2]; 3 mg/kg tail vein days 6, 13, 20) was 27.4%, the “tumor growth inhibitory rate” value ([2]; 10 mg/kg tail vein days 6, 13, 20) was 26.9% and the “tumor growth inhibitory rate” value ([2]; 30 mg/kg tail vein days 6, 13, 20) was 20.3%. The “tumor growth inhibitory rate” value ([3]; 3 mg/kg tail vein days 12, 19, 26) was 13.5%, the “tumor growth inhibitory rate” value ([3]; 10 mg/kg tail vein days 12, 19, 26) was 12.6% and the “tumor growth inhibitory rate” value [1] was 27%. The “tumor growth inhibitory rate” value [4] was 40%.

With `CCc1c2c(nc3ccc(OC(=O)N4CCC(N5CCCCC5)CC4)cc13)-c1cc3c(c(=O)n1C2)COC(=O)[C@]3(O)CC` [CPT-11, irinotecan (CPT-11), reference compound] the “tumor growth inhibitory rate” value [5] was 29.5%, the “tumor growth inhibitory rate” value [6] was 83.5% and the “tumor growth inhibitory rate” value [7] was 89.8%.

With `CC(=O)O[C@H]1C(=O)[C@@]2(C)[C@H]([C@H](OC(=O)c3ccccc3)[C@]3(O)C[C@H](OC(=O)[C@H](O)[C@@H](NC(=O)c4ccccc4)c4ccccc4)C(C)=C1C3(C)C)[C@]1(OC(C)=O)CO[C@@H]1C[C@@H]2O` [paclitaxel] the “tumor growth inhibitory rate” value [4] was 49%.

With `CC[C@]1(O)C[C@@H]2CN(CCc3c([nH]c4ccccc34)[C@@](C(=O)OC)(c3cc4c(cc3OC)N(C)[C@H]3[C@@](O)(C(=O)OC)[C@H](OC(C)=O)[C@]5(CC)C=CCN6CC[C@]43[C@@H]65)C2)C1` [vinblastine, reference compound] the “tumor growth inhibitory rate” value [8] was 43.6%.

B1: B273: mouse anti-human DR5 monoclonal antibody from hybridoma B273; heavy chain SEQ ID NO: 8, light chain SEQ ID NO: 10; IgG1, κ (antibody, listed as Mus musculus)
heavy: MGWSCIFLFLLSVTVGVFSEVQLQQSGPELVKPGASVKISCKASGYSFIGYFMNWMKQSHGKSLEWIGRFNPYNGDTFYNQKFKGKATLTVDKSSTTAHMELLSLTSEDSAVYFCGRSAYYFDSGGYFDYWGQGTTLTVSSAKTTPPSVYPLAPGSAAQTNSMVTLGCLVKGYFPEPVTVTWNSGSLSSGVHTFPAVLQSDLYTLSSSVTVPSSTWPSETVTCNVAHPASSTKVDKKIVPRDCGCKPCICTVPEVSSVFIFPPKPKDVLTITLTPKVTCVVVDISKDDPEVQFSWFVDDVEVHTAQTQPREEQFNSTFRSVSELPIMHQDWLNGKEFKCRVNSAAFPAPIEKTISKTKGRPKAPQVYTIPPPKEQMAKDKVSLTCMITDFFPEDITVEWQWNGQPAENYKNTQPIMDTDGSYFVYSKLNVQKSNWEAGNTFTCSVLHEGLHNHHTEKSLSHSPGK
light: MKLPVRLLVLMFWIPASSSDVVMTQTPLSLPVSLGDQASISCRSSQSLVHSNGNTYLHWYLQKPGQSPKLLIYKVSNRFSGVPDRFSGSGSGTDFTLKISRVEAEDLGIYFCSQSTHVPWTFGGGTKLEIKRADAAPTVSIFPPSSEQLTSGGASVVCFLNNFYPKDINVKWKIDGSERQNGVLNSWTDQDSKDSTYSMSSTLTLTKDEYERHNSYTCEATHKTSTSPIVKSFNRNEC
B1 was tested, and the “cytocidal effect (cell viability, ATP)” value [9] was “exhibits a cytocidal effect on both cell lines in an antibody concentration-dependent manner” and the “cytocidal effect (cell viability, ATP)” value [10] was “exhibits a cytocidal effect on both cell lines in an antibody concentration-dependent manner”.
